Measurements reported in paper PMC8792198 (Journal of pharmaceutical sciences, 2021).
Where “and” joins values, the source holds several entries; their conditions need not be identical. Equal entries are not always repeated. Each block holds one compound with its values, some of them ahead of it.

Columns and labels:
OATP5A1 = OATP5A1 (Homo sapiens, UniProt Q9H2Y9); assay: Uptake into HEK293 cells stably overexpressing OATP5A1; type: in vitro ADME; conditions: for transport by OATP5A1 in HEK293-OATP5A1 cells: pH 7.4
OATP5A1, sequence (Q9H2Y9 whole entry): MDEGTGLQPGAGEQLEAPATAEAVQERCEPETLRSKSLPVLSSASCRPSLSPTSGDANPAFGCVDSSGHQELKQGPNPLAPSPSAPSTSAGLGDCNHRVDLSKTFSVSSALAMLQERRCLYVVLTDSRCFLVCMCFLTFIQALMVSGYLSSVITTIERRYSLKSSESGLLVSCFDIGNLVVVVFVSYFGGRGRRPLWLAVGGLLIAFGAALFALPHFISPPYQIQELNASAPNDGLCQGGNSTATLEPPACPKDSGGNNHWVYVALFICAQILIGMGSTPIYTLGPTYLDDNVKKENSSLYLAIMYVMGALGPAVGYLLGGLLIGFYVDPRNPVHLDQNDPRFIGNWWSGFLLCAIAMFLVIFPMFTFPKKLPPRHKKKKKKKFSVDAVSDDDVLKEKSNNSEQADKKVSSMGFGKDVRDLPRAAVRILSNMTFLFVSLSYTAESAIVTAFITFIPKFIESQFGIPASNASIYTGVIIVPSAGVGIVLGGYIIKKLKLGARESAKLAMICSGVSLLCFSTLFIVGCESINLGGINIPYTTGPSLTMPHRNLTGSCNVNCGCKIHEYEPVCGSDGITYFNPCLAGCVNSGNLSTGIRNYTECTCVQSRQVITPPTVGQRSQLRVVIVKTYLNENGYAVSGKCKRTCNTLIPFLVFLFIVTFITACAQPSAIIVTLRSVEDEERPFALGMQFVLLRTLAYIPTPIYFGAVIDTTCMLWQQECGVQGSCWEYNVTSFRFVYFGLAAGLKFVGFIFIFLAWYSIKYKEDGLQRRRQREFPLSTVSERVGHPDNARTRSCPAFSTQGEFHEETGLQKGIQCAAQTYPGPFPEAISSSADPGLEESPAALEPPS

OAT4 [1] = biological target: T1, OAT4 (Homo sapiens, UniProt Q9NSA0); assay: Effect of E3S on OAT4-mediated uptake of pravastatin; type: in vitro ADME; conditions: E3S (200 μM), 2 μM pravastatin
T1 sequence (Q9NSA0 1-550): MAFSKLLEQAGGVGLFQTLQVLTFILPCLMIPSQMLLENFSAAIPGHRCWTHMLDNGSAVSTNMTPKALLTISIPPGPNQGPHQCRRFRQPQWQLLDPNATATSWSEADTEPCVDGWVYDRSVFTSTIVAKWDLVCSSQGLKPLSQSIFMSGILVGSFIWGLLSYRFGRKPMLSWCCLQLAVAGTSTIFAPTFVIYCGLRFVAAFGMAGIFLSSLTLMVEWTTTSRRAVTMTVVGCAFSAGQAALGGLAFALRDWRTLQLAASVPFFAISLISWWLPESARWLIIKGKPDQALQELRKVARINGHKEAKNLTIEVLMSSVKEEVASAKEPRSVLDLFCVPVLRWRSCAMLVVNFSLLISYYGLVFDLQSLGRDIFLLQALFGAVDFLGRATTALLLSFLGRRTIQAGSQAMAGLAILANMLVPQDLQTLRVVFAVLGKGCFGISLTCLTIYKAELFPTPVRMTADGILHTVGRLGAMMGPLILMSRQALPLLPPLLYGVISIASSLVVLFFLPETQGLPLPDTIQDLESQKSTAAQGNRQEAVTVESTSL

placental BM vesicles [2] = conditions: cited from earlier work
[3] = pregnant women taking 10 mg daily dose; cited from earlier work
OATP2B1 = biological target: T2, OATP2B1 (Homo sapiens, UniProt O94956)
T2 sequence (O94956 1-709): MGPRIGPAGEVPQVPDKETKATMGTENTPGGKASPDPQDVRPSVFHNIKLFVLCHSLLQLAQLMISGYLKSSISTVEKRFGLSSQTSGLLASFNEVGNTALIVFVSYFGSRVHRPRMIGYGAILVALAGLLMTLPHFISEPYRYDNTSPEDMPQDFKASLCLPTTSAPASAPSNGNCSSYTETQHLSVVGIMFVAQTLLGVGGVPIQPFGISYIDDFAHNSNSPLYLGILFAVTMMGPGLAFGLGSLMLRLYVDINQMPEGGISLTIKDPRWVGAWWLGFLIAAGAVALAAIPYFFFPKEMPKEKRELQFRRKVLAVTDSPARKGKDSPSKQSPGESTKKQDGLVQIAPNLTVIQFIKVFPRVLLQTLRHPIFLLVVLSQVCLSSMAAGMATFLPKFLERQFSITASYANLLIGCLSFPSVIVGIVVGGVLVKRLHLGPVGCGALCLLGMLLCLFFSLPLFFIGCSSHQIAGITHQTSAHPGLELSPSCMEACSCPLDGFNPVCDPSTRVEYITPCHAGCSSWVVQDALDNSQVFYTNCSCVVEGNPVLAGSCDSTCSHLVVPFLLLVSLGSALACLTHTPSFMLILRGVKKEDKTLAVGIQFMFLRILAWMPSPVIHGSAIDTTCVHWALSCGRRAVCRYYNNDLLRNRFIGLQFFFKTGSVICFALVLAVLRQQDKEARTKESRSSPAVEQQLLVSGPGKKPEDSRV

OATP2A1 [4] = biological target: T3, OATP2A1 (Homo sapiens, UniProt Q92959); assay: Uptake into HEK293 cells stably overexpressing OATP2A1; type: in vitro ADME; conditions: 1 min
OAT4 [5] = conditions: S2 cells expressing OAT4, single component saturation kinetics; ref 20 (Nakagomi-Hagihara et al, 2007); cited from earlier work
placental AM vesicles = assay: Glutarate-stimulated uptake of pravastatin by placental AM vesicles; type: in vitro ADME, human; conditions: 1 μM [3H]Pravastatin, 37°C
OAT4 [6] = biological target: T1, OAT4; assay: Uptake into tetracycline-inducible T-REx-OAT4-293 cells; conditions: for Uptake, Net (transporter-mediated) / Uptake, Transporter-expressing cells: OAT4, 4 μM pravastatin; for Kt / Vmax: OAT4-mediated uptake, physiological pH, 37°C; for Uptake, Control: control cells for OAT4, 4 μM pravastatin
OAT4 [7] = biological target: T1, OAT4; assay: OAT4-mediated efflux of preloaded pravastatin from T-REx-OAT4-293 cells; type: in vitro ADME
OATP1A2 = biological target: T4, OATP1A2 (Homo sapiens, UniProt P46721); assay: Uptake into HEK293 cells transiently overexpressing OATP1A2; type: in vitro ADME
T4 sequence (P46721 1-670): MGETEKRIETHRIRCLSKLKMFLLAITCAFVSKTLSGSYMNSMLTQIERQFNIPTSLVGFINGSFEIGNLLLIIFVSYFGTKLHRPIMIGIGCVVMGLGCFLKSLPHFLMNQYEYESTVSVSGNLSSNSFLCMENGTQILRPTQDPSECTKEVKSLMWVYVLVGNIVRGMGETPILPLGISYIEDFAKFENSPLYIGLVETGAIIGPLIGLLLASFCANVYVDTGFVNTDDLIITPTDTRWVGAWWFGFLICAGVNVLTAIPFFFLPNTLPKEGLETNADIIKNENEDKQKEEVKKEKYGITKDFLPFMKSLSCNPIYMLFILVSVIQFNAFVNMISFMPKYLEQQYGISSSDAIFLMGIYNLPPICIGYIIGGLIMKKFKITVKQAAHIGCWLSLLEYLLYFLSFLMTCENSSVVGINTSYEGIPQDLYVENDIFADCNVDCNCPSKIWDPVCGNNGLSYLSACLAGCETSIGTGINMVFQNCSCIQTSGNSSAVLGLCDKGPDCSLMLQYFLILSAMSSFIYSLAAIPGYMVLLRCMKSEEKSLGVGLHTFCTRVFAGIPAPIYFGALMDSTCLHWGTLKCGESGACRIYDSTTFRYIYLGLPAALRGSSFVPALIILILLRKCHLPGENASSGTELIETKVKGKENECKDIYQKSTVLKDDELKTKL

placenta = conditions: ex vivo placental perfusion; cited from earlier work
placental BM vesicles [8] = assay: Glutarate-stimulated uptake of pravastatin by placental BM vesicles; type: in vitro ADME, human
OATP2A1 [9] = biological target: T3, OATP2A1; conditions: 2 μM pravastatin
[10] = OATP2A1-mediated uptake, physiological pH, 37°C
[11] = GA (glutaric acid preload), 30 s
[12] = higher concentration range (low affinity)
[13] = OATP1A2-mediated uptake at pH 6.0
[14] = OATP1A2-mediated uptake, physiological pH, 37°C, 30 s

Structure (SMILES): O=C1OC2(c3ccc(O)cc3Oc3cc(O)ccc32)c2ccccc21 [fluorescein, sodium fluorescein]
transport by OATP5A1 in HEK293-OATP5A1 cells (OATP5A1): none of the substrates tested, namely pravastatin, E3S, PE2 and fluorescein were found to be transported

inhibition of OAT4-mediated uptake of pravastatin (OAT4 [1]): complete inhibition
Structure (SMILES): C[C@]12CC[C@@H]3c4ccc(OS(=O)(=O)O)cc4CC[C@H]3[C@@H]1CCC2=O [E3S, estrone-3-sulfate]

Structure (SMILES): CCCCC[C@H](O)/C=C/[C@H]1[C@H](O)CC(=O)[C@@H]1C/C=C\CCCC(=O)O [PE2, Prostaglandin-E2]
transport by OATP5A1 in HEK293-OATP5A1 cells (OATP5A1): none of the substrates tested, namely pravastatin, E3S, PE2 and fluorescein were found to be transported

Structure (SMILES): C[C@]12CC[C@H](O)CC1=CC[C@@H]1[C@@H]2CC[C@]2(C)C(=O)[C@H](O)C[C@@H]12 [16α-hydroxydehydroepiandrosterone]
increase of the uptake into placental BM vesicles by glutarate trans-stimulation (placental BM vesicles [2]): 56%

Uptake, Transporter-expressing cells (OATP2B1; OATP2B1, 0.75 μM [3H]Pravastatin, 37°C, 1 min, neutral pH): 0.71 ± 0.13 pmol/mg protein/min
Uptake, Net (transporter-mediated) (OATP2B1; OATP2B1, 0.75 μM [3H]Pravastatin, 1 min, neutral pH): 0.10 ± 0.16 pmol/mg protein/min
Uptake, Control (OATP2B1; control cells for OATP2B1, 0.75 μM [3H]Pravastatin, 1 min, neutral pH): 0.61 ± 0.13 pmol/mg protein/min
Uptake, Transporter-expressing cells (OATP2A1 [4]; OATP2A1, 1 μM pravastatin, 37°C, neutral pH): 0.46 ± 0.06 pmol/mg protein/min
Kt (OATP2A1 [4]; [10]): 188 ± 109 µM
Vmax (OATP2A1 [4]; [10]): 73.8 ± 19.2 pmol/mg protein*min^−1
Uptake, Control (OATP2A1 [4]; control cells for OATP2A1, 1 μM pravastatin, neutral pH): 0.26 ± 0.06 pmol/mg protein/min
glutarate-stimulated uptake into AM vesicles (placental AM vesicles): insignificant
Uptake, Net (transporter-mediated) (OAT4 [6]; 30 s, chloride, no glutarate preload): 2.86 ± 0.27 pmol/mg protein/min
Uptake, Net (transporter-mediated) (OAT4 [6]; Cl-free uptake buffer, 30 s): 7.15 ± 0.59 pmol/mg protein/min
Uptake, Transporter-expressing cells (OAT4 [6]; Cl-free uptake buffer, 30 s): 8.66 ± 0.80 ^*^, # pmol/mg protein/min
Uptake, Net (transporter-mediated) (OAT4 [6]; [11]): 5.17 ± 0.84 pmol/mg protein/min
Uptake, Transporter-expressing cells (OAT4 [6]; [11]): 7.04 ± 0.97 ^*^, # pmol/mg protein/min
Kt (OAT4 [6]; [12]): 295 ± 99 µM and 295 ± 99.0 µM
Vmax (OAT4 [6]; [12]): 345 ± 54.8 pmol/mg protein*min^−1
Vmax (OAT4 [6]; lower concentration range (high-affinity)): 42.0 ± 93.4 pmol/mg protein*min^−1
Kt (OAT4 [6]; lower concentration range (high-affinity), 30 s): 30.5 ± 75.0 µM
Uptake, Control (OAT4 [6]; Cl-free uptake buffer, 30 s): 1.51 ± 0.24 pmol/mg protein/min
Uptake, Control (OAT4 [6]; [11]): 1.87 ± 0.25 pmol/mg protein/min
remaining preloaded pravastatin (OAT4 [7]; OAT4-expressing cells, chloride-free condition, 60 s efflux, preload 4 μM): 39 ± 2%
estimated Ke of the pravastatin efflux (OAT4 [7]; chloride-free condition, OAT4-expressing cells): 2.1 ± 0.5 10^−2s^−1
estimated Ke of the pravastatin efflux (OAT4 [7]; chloride-free condition, control cells): 3.6 ± 2.1 10^−2s^−1
estimated Ke of the pravastatin efflux (OAT4 [7]; presence of extracellular chloride, OAT4-expressing cells): 2.6 ± 0.6 10^−2s^−1
estimated Ke of the pravastatin efflux (OAT4 [7]; presence of extracellular chloride, control cells): 3.0 ± 1.0 10^−2s^−1
Uptake, Net (transporter-mediated) (OATP1A2; OATP1A2, 0.75 μM [3H]Pravastatin, 30 s, neutral pH): 1.06 ± 0.32 pmol/mg protein/min
Uptake, Transporter-expressing cells (OATP1A2; OATP1A2, 0.75 μM [3H]Pravastatin, 37°C, 30 s, neutral pH): 1.73 ± 0.31 pmol/mg protein/min
apparent Kt (OATP1A2; [13]): 23.6 ± 2.87 µM
apparent Vmax (OATP1A2; [13]): 361 ± 29.3 pmol/mg protein*min^−1
Kt (OATP1A2; [14]): 1.60 ± 0.97 µM
Vmax (OATP1A2; [14]): 4.08 ± 0.72 pmol/mg protein*min^−1
Uptake, Control (OATP1A2; control cells for OATP1A2, 0.75 μM [3H]Pravastatin, 30 s, neutral pH): 0.66 ± 0.15 pmol/mg protein/min
Uptake, Transporter-expressing cells (OATP5A1; OATP5A1, 10 μM pravastatin, 37°C, 1 min, neutral pH): 1.85 ± 0.18 pmol/mg protein/min
Uptake, Net (transporter-mediated) (OATP5A1; OATP5A1, 10 μM pravastatin, 1 min, neutral pH): 0.23 ± 0.01 pmol/mg protein/min
Uptake, Control (OATP5A1; control cells for OATP5A1, 10 μM pravastatin, 1 min, neutral pH): 1.62 ± 0.18 pmol/mg protein/min
net (glutarate-dependent) uptake into BM vesicles at 4°C (placental BM vesicles [8]; 4°C, 0.5-2 μM): negligible
glutarate-stimulated uptake into BM vesicles, concentration dependence (placental BM vesicles [8]; two-fold increase of substrate from 1 μM to 2 μM, 37°C): proportional increase
Structure (SMILES): CC[C@H](C)C(=O)O[C@H]1C[C@H](O)C=C2C=C[C@H](C)[C@H](CC[C@@H](O)C[C@@H](O)CC(=O)O)[C@H]21 [Pravastatin]
steady state plasma concentrations [3]: nanomolar range
OATP2B1-mediated uptake (OATP2B1; pH 7.4): did not detect any OATP2B1-mediated uptake
Kt (OAT4 [5]): 257 µM
transport by OATP5A1 in HEK293-OATP5A1 cells (OATP5A1): none of the substrates tested, namely pravastatin, E3S, PE2 and fluorescein were found to be transported
clearance index, direction of transfer (placenta): higher in the fetal-to-maternal direction than in the maternal-to-fetal direction
drug crossing the placenta from the maternal to fetal direction (placenta): 18 ± 4%
trans-stimulatory effect of glutarate on the uptake into placental BM vesicles (increase) (placental BM vesicles [8]; BM vesicles, glutarate preload, Fig 1A): 18%
glutarate-stimulated uptake into BM vesicles (placental BM vesicles [8]; pravastatin concentrations below 1 μM, 37°C): did not detect any glutarate-stimulated uptake

Structure (SMILES): CCCc1nc(C(C)(C)O)c(C(=O)O)n1Cc1ccc(-c2ccccc2-c2nnn[nH]2)cc1 [olmesartan]
increase of the uptake into placental BM vesicles by glutarate trans-stimulation (placental BM vesicles [2]): 33%

decrease of the net, OATP2A1-dependent, uptake of pravastatin (OATP2A1 [9]; diclofenac 20 μM): 50%
Structure (SMILES): O=C(O)Cc1ccccc1Nc1c(Cl)cccc1Cl [diclofenac]
effect on uptake of pravastatin into OATP2A1-expressing cells (OATP2A1 [9]; diclofenac 200 μM): did not result in a statistically significant decrease
